What was measured:
[1] = test system: CYP7A1; assay: In vivo FXR assay: CYP7A1 in mice liver by real-time PCR; conditions: CDAHFD-fed C57BL/6J mice, single oral dose 30 and 10 mg/kg, liver four hours after administration
Method: Test compounds were orally administered to 7-week old male C57BL/6J mice (Nippon Charles River Co., Ltd., Yokohama City, Kanagawa, Japan), that were administered CDAHFD (#A06071302, Research Diets, 20 Jules Lane, New Brunswick, NJ, USA) consisting 60 kcal% fat and 0.1% methionine by weight for 7 days. After four hours of administration, the liver was removed, and total RNA was extracted using a Pure Link RNA Mini Kit (Invitrogen, Thermo Fisher Scientific K. K., Minato-ku, Tokyo, Japan). The concentration of total RNA was measured using Micro Sample Spectrophotometer (SimpliNano, GE Healthcare UK Ltd, Amersham Place Little Chalfont Buckinghamshire, HP7 9NA UK), and cDNA was synthesized using ReverTra Ace qPCR RT Master Mix (Toyobo Co., Ltd., Osaka City, Osaka, Japan). Real-time PCR was performed using a CFX96 Touch Real-Time PCR Analysis System (CFX Manager, Bio-Rad, 1000 Alfred Nobel Drive, Hercules, CA, USA), and the mRNA expression levels of SHP and CYP7A1, the target genes of FXR, were measured using the intercalator method.
S4. In vitro, in vivo assay, and selectvity.
To directly evaluate the in vitro agonist activity towards FXR, test compounds were evaluated in CHO cells transfected with FXR responsive luciferase reporter (Nuclear Receptor & In Vitro Toxicology Solutions, Indigo Biosciences, State College, PA, USA). […]

[2] = Pharmacokinetics in rats; format: in vivo, Sprague-Dawley rats; conditions: for Cmax / half-life / CLtot: n=3; for AUC: n=3, AUC0-24h; for Plasma exposure (in words): oral dose of 3 mg/kg; for CLtot: p.o.
Method: S3. Supplementary Table S1. Pharmacokinetic properties of 20p and 20q after oral administration […]
Determination of Drug Pharmacokinetics in Sprague-Dawley rats.
Blood samples (about 200 µl) were obtained from the jugular vein at 0.083 (intravenous only), 0.25, 0.5, 1, 2, 4, 8, and 24 hours from 16-hour fasted rats. Plasma was obtained from the blood samples by centrifugation at 3000 rpm for 10 minutes at 4 °C. Plasma were deproteinated and centrifuged at 3000 rpm for 10 minutes at 4 °C. Drug concentrations were measured using LC - MSMS (Triple Quad 4500; […]). Area under the plasma concentration -time curve at 0–24h (AUC0–24h) were calculated using the trapezoidal rule. pharmacokinetic parameters were calculated using the Phoenix WinNonlin 6.4 software (Certara […]

[3] = Sprague-Dawley, rat, plasma, po, 3mg/kg
[4] = Sprague-Dawley, rat, plasma, iv, 3mg/kg

Row | Cmax [2, 3] | half-life [2, 3] | AUC [2, 3] | Plasma exposure (in words) [2] | CLtot ([2]; 3mg/kg) | Cmax [2, 4] | half-life [2, 4] | AUC [2, 4] | clearance ([2]; Sprague-Dawley, rat, plasma, iv, 3mg/kg, n=3, read-out: CLtot (converted)) | Structure (SMILES) | Repression of CYP7A1 in the liver [1]
1 | 50.3 ng/mL | 1.45 h | 121 ng·h/mL | rather low plasma exposure | 426.93 mL/min/kg |  |  |  |  | COc1cc(Cl)cc(N(CC23CCC(c4ccc(OC)c(C#N)c4)(CC2)CC3)C(=O)c2ccncc2C)c1 [Compound 20p] | decreased CYP7A1 in the liver
2 | 3.2 ng/mL | 4.52 h | 11 ng·h/mL | rather low plasma exposure | 2652.33 mL/min/kg | 2580 ng/mL | 5.04 h | 1460 ng·h/mL | 34.2 mL/min/kg | COc1ccc(C23CCC(CN(C(=O)c4ccncc4C)c4cc(Cl)cc(Cl)c4)(CC2)CC3)cc1C#N [Compound 20q] | decreased CYP7A1 in the liver

Source: paper PMC8080777, “Discovery, optimization, and evaluation of non-bile acid FXR/TGR5 dual agonists” (Scientific Reports, 2021)
